Laboratory results taken from patent US5667764A, “Compounds, compositions and methods for binding bio-affecting substances to surface membranes of bio-particles” (Zynaxis, Inc., priority 1992, dated 1997).

Test system: red blood cell ghosts (plasma membrane)
Experiment: Membrane retention coefficient (MRC) in red blood cell ghosts
Format: binding
Details: for Δ MRC: change in MRC to 24 hr
Protocol: Determination of Membrane Retention Coefficient
The membrane retention coefficient (MRC) provides information regarding how well a given compound is retained in the plasma membrane of a cell and is determined as described below.
Generation of red blood cell ghosts for use as a model membrane is achieved by centrifuging whole blood at 300×g for 15 minutes, removal of the plasma and resuspension of the cell pellet in 0.83% (w/v) ammonium chloride. The ghosts are pelleted from the ammonium chloride by centrifuging at 10,000×g for 10 minutes. This ammonium chloride washing procedure is repeated a minimum of five times to insure that complete release of hemoglobin from the cells has occured. The ghosts are labeled with the compound in question at a concentration allowing for detection of the labeled ghosts by instrumental analysis or fluorescent microscopic methods, and at a concentration similar to those that would be used to label cells for a specific application as described above. For the determinations hereinbelow stock solutions of the compounds in question were prepared in ethanol at a molar concentration of 2×10^-3, and working dilutions of the compounds were prepared in iso-osmotic sucrose (52 g/500 ml distilled water). After incubation of the ghosts at an approximate concentration of 1×10^9 ghosts/ml in the working dilutions of the compounds for 10 minutes, the samples were centrifuged at 10,000×g to pellet the ghosts and the staining solution was aspirated from the samples. The labeled ghosts were resuspended in 1 ml of phosphate buffered saline solution containing 10% fetal bovine serum (PBS-FBS). Triplicate 20 ul aliquots were removed from each sample for the determination of the amount of total compound present. The samples were centrifuged as described above and triplicate 20 ul aliquots were removed from the supernatant for quantitative determination of amount of unbound compound present.
After sampling, the supernatant was aspirated and the red cell ghost pellet was resuspended in 1.0 ml of the PBS-FBS, which was once again sampled as described above. This procedure was repeated at least six times, allowing for detection of rapidly released compounds and was monitored after times equal to or greater than 24 hours to allow for the detection of more slowly released compounds. For the determination of the amount of compound present in each sample, the 20 ul aliquots were extracted into 3.0 ml of n-butanol by shaking. The samples were centrifuged at 3000×g to remove membrane debris and the butanol fractions were assayed for compound concentration. Fluorescent compounds are assayed in this manner using peak excitation and emission wave lengths for the particular compounds being assayed to determine the fluorescence units for each sample.
The determination of the amount of compound present in each sample as described above allows for the calculation of the MRC for each washing or fixed time point. The value is obtained by the following formula: […]
wherein CT represents the amount of compound present (in units determined by the method used to assay the compound) in the total sample and CS represents the amount of compound present in the supernatant sample for that particular time point. The comparison of the MRC values defines criteria for identification of the compounds of this invention, these criteria being: 1) the MRC values determined for each washing steps should have a value of at least about 90 and 2) the percent difference between MRC values over at least a 24 hour time period should be less than about 10%. [drawing 14]
The data provided in Table I below are the results from one experiment and serve as an example of the MRC determination. […]

## CCCCCCCCCCCCCCCCCCN1C(=CC=Cc2oc3ccccc3[n+]2CCC)Oc2ccccc21 [E]
  Membrane retention coefficient (MRC), 24 HR: 53.81
  Δ MRC: 44.62%
  Membrane retention coefficient (MRC), WASH 1: 90.69
  Membrane retention coefficient (MRC), WASH 2: 94.74
  Membrane retention coefficient (MRC), WASH 3: 96.28
  Membrane retention coefficient (MRC), WASH 4: 96.74
  Membrane retention coefficient (MRC), WASH 5: 96.41
  Membrane retention coefficient (MRC), WASH 6: 97.17

## CCCCCCCCCCCCCCN1C(=CC=Cc2oc3ccccc3[n+]2CCC)Oc2ccccc21 [D]
  Membrane retention coefficient (MRC), 24 HR: 18.84
  Δ MRC: 75.82%
  Membrane retention coefficient (MRC), WASH 1: 50.40
  Membrane retention coefficient (MRC), WASH 2: 61.20
  Membrane retention coefficient (MRC), WASH 3: 64.45
  Membrane retention coefficient (MRC), WASH 4: 65.85
  Membrane retention coefficient (MRC), WASH 5: 70.62
  Membrane retention coefficient (MRC), WASH 6: 77.92

## CCC[n+]1c(C=CC=C2Oc3ccccc3N2CCC(C)CCCC(C)CCCC(C)CCCC(C)C)oc2ccccc21 (stereo not drawn) [F]
  Membrane retention coefficient (MRC), 24 HR: 36.77
  Δ MRC: 61.64%
  Membrane retention coefficient (MRC), WASH 1: 88.82
  Membrane retention coefficient (MRC), WASH 2: 93.94
  Membrane retention coefficient (MRC), WASH 3: 95.15
  Membrane retention coefficient (MRC), WASH 4: 95.26
  Membrane retention coefficient (MRC), WASH 5: 94.51
  Membrane retention coefficient (MRC), WASH 6: 96.64

## CCCCCCCCCCN1C(=CC=CC2=[N+](CCCCCCCCCC)c3ccccc3C2(C)C)C(C)(C)c2ccccc21 [B]
  Membrane retention coefficient (MRC), 24 HR: 54.08
  Δ MRC: 42.95%
  Membrane retention coefficient (MRC), WASH 1: 83.28
  Membrane retention coefficient (MRC), WASH 2: 92.36
  Membrane retention coefficient (MRC), WASH 3: 94.63
  Membrane retention coefficient (MRC), WASH 4: 94.94
  Membrane retention coefficient (MRC), WASH 5: 95.33
  Membrane retention coefficient (MRC), WASH 6: 94.80

## CCCCCCCCCCCCCCCCCCN1C(=CC=Cc2oc3ccccc3[n+]2CCCCCCCC)Oc2ccccc21 [I]
  Membrane retention coefficient (MRC), 24 HR: 97.65
  Δ MRC: 2.08%
  Membrane retention coefficient (MRC), WASH 1: 94.69
  Membrane retention coefficient (MRC), WASH 2: 98.24
  Membrane retention coefficient (MRC), WASH 3: 98.32
  Membrane retention coefficient (MRC), WASH 4: 98.78
  Membrane retention coefficient (MRC), WASH 5: 98.96
  Membrane retention coefficient (MRC), WASH 6: 99.73

## CCCCCN1C(=CC=CC2=[N+](CCCCC)c3ccccc3C2(C)C)C(C)(C)c2ccccc21 [A]
  Membrane retention coefficient (MRC), 24 HR: 0.00
  Δ MRC: 100.00%
  Membrane retention coefficient (MRC), WASH 1: 51.63
  Membrane retention coefficient (MRC), WASH 2: 51.12
  Membrane retention coefficient (MRC), WASH 3: 44.82
  Membrane retention coefficient (MRC), WASH 4: 41.39
  Membrane retention coefficient (MRC), WASH 5: 12.59
  Membrane retention coefficient (MRC), WASH 6: 17.48

## CCCCCCCCCCCCCCCCCCCCN1C(=CC=Cc2oc3ccccc3[n+]2CCC)Oc2ccccc21 [Compound H]
  Membrane retention coefficient (MRC), 24 HR: 90.10
  Δ MRC: 8.43%
  Membrane retention coefficient (MRC), WASH 1: 91.70
  Membrane retention coefficient (MRC), WASH 2: 97.22
  Membrane retention coefficient (MRC), WASH 3: 97.97
  Membrane retention coefficient (MRC), WASH 4: 98.24
  Membrane retention coefficient (MRC), WASH 5: 98.09
  Membrane retention coefficient (MRC), WASH 6: 98.40

## CCCCCCCCCCCCCCN1C(=CC=CC2=[N+](CCCCCCCCCCCCCC)c3ccccc3C2(C)C)C(C)(C)c2ccccc21 [C]
  Membrane retention coefficient (MRC), 24 HR: 93.90
  Δ MRC: 5.26%
  Membrane retention coefficient (MRC), WASH 1: 94.85
  Membrane retention coefficient (MRC), WASH 2: 97.24
  Membrane retention coefficient (MRC), WASH 3: 98.40
  Membrane retention coefficient (MRC), WASH 4: 98.64
  Membrane retention coefficient (MRC), WASH 5: 98.43
  Membrane retention coefficient (MRC), WASH 6: 99.12

## CCCCCCCCCCCCCCCCCCCCCCCCCC[n+]1c2cc(N(C)C)ccc2cc2ccc(N(C)C)cc21 [N]
  Membrane retention coefficient (MRC), 24 HR: 98.27
  Δ MRC: 0.61%
  Membrane retention coefficient (MRC), WASH 1: 95.97
  Membrane retention coefficient (MRC), WASH 2: 97.51
  Membrane retention coefficient (MRC), WASH 3: 98.32
  Membrane retention coefficient (MRC), WASH 4: 98.48
  Membrane retention coefficient (MRC), WASH 5: 98.71
  Membrane retention coefficient (MRC), WASH 6: 98.88
